Source: PubChem BioAssay (NCI)
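Abbreviation: GI50, concentration required for 50% inhibition of growth. TGI marks complete inhibition of growth.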

How the values were obtained:
Experiment in all cases: NCI-60 cell line screen, 384-well format; in the data active = GI50 below about 0.43 µM; inactive = the rest
786-0 renal = test system: 786-0 renal
A549 NSCLC = test system: A549 NSCLC
ACHN renal = test system: ACHN renal
BT-549 breast = test system: BT-549 breast
CAKI-1 renal = test system: CAKI-1 renal
CCRF-CEM leukemia = test system: CCRF-CEM leukemia
COLO 205 colon = test system: COLO 205 colon
HCC-2998 colon = test system: HCC-2998 colon
HCT-15 colon = test system: HCT-15 colon
HL-60(TB) leukemia = test system: HL-60(TB) leukemia
HOP-62 NSCLC = test system: HOP-62 NSCLC
HS 578T breast = test system: HS 578T breast
HT29 colon = test system: HT29 colon
IGROV1 ovarian = test system: IGROV1 ovarian
KM12 colon = test system: KM12 colon
LOX IMVI melanoma = test system: LOX IMVI melanoma
M14 melanoma = test system: M14 melanoma
MALME-3M melanoma = test system: MALME-3M melanoma
MCF7 breast = test system: MCF7 breast
MDA-MB-231 breast = test system: MDA-MB-231 breast
MDA-MB-468 breast = test system: MDA-MB-468 breast
NCI-H226 lung = test system: NCI-H226 lung
NCI-H322M lung = test system: NCI-H322M lung
NCI-H522 lung = test system: NCI-H522 lung
NCI/ADR-RES ovarian = test system: NCI/ADR-RES ovarian
OVCAR-3 ovarian = test system: OVCAR-3 ovarian
OVCAR-4 ovarian = test system: OVCAR-4 ovarian
OVCAR-5 ovarian = test system: OVCAR-5 ovarian
OVCAR-8 ovarian = test system: OVCAR-8 ovarian
PC-3 prostate = test system: PC-3 prostate
RPMI-8226 leukemia = test system: RPMI-8226 leukemia
RXF 393 renal = test system: RXF 393 renal
SF-295 CNS = test system: SF-295 CNS
SF-539 CNS = test system: SF-539 CNS
SK-MEL-28 melanoma = test system: SK-MEL-28 melanoma
SK-MEL-5 melanoma = test system: SK-MEL-5 melanoma
SK-OV-3 ovarian = test system: SK-OV-3 ovarian
SN12C renal = test system: SN12C renal
SNB-19 CNS = test system: SNB-19 CNS
SNB-75 CNS = test system: SNB-75 CNS
SW-620 colon = test system: SW-620 colon
T-47D breast = test system: T-47D breast
TK-10 renal = test system: TK-10 renal
U251 glioblastoma = test system: U251 glioblastoma
UACC-257 melanoma = test system: UACC-257 melanoma
UACC-62 melanoma = test system: UACC-62 melanoma
UO-31 renal = test system: UO-31 renal

C/C=C1\NC(=O)[C@H]2CSSCCC=C[C@H](CC(=O)N[C@H](C(C)C)C(=O)N2)OC(=O)[C@H](C(C)C)NC1=O
< 10 nM: TGI (A549 NSCLC) | TGI (BT-549 breast) | TGI (CAKI-1 renal) | TGI (CCRF-CEM leukemia) | TGI (COLO 205 colon) | TGI (HCC-2998 colon) | TGI (HL-60(TB) leukemia) | TGI (HOP-62 NSCLC) | TGI (HS 578T breast) | TGI (HT29 colon) | TGI (IGROV1 ovarian) | TGI (KM12 colon) | TGI (LOX IMVI melanoma) | TGI (M14 melanoma) | TGI (MALME-3M melanoma) | TGI (MCF7 breast) | TGI (MDA-MB-231 breast) | TGI (MDA-MB-468 breast) | TGI (NCI-H322M lung) | TGI (NCI-H522 lung) | TGI (OVCAR-3 ovarian) | TGI (OVCAR-4 ovarian) | TGI (OVCAR-5 ovarian) | TGI (OVCAR-8 ovarian) | TGI (PC-3 prostate) | TGI (RPMI-8226 leukemia) | TGI (RXF 393 renal) | TGI (SF-295 CNS) | TGI (SF-539 CNS) | TGI (SK-MEL-28 melanoma) | TGI (SK-MEL-5 melanoma) | TGI (SK-OV-3 ovarian) | TGI (SN12C renal) | TGI (SNB-19 CNS) | TGI (SNB-75 CNS) | TGI (SW-620 colon) | TGI (T-47D breast) | TGI (U251 glioblastoma) | TGI (UACC-257 melanoma) | TGI (UACC-62 melanoma)
806 nM: TGI (HCT-15 colon)
19.2 nM: TGI (NCI-H226 lung)
13800 nM: TGI (NCI/ADR-RES ovarian)
< 14.9 nM: TGI (786-0 renal)
23.3 nM: TGI (ACHN renal)
159 nM: TGI (UO-31 renal)
active: GI50 (786-0 renal) < 10 nM | GI50 (A549 NSCLC) < 10 nM | GI50 (ACHN renal) < 11.9 nM | GI50 (BT-549 breast) < 10 nM | GI50 (CAKI-1 renal) < 10 nM | GI50 (CCRF-CEM leukemia) < 10 nM | GI50 (COLO 205 colon) < 10 nM | GI50 (HCC-2998 colon) < 10 nM | GI50 (HCT-15 colon) 82.9 nM | GI50 (HL-60(TB) leukemia) < 10 nM | GI50 (HOP-62 NSCLC) < 10 nM | GI50 (HS 578T breast) < 10 nM | GI50 (HT29 colon) < 10 nM | GI50 (IGROV1 ovarian) < 10 nM | GI50 (KM12 colon) < 10 nM | GI50 (LOX IMVI melanoma) < 10 nM | GI50 (M14 melanoma) < 10 nM | GI50 (MALME-3M melanoma) < 10 nM | GI50 (MCF7 breast) < 10 nM | GI50 (MDA-MB-231 breast) < 10 nM | GI50 (MDA-MB-468 breast) < 10 nM | GI50 (NCI-H226 lung) < 10 nM | GI50 (NCI-H322M lung) < 10 nM | GI50 (NCI-H522 lung) < 10 nM | GI50 (OVCAR-3 ovarian) < 10 nM | GI50 (OVCAR-4 ovarian) < 10 nM | GI50 (OVCAR-5 ovarian) < 10 nM | GI50 (OVCAR-8 ovarian) < 10 nM | GI50 (PC-3 prostate) < 10 nM | GI50 (RPMI-8226 leukemia) < 10 nM | GI50 (RXF 393 renal) < 10 nM | GI50 (SF-295 CNS) < 10 nM | GI50 (SF-539 CNS) < 10 nM | GI50 (SK-MEL-28 melanoma) < 10 nM | GI50 (SK-MEL-5 melanoma) < 10 nM | GI50 (SK-OV-3 ovarian) < 10 nM | GI50 (SN12C renal) < 10 nM | GI50 (SNB-19 CNS) < 10 nM | GI50 (SNB-75 CNS) < 10 nM | GI50 (SW-620 colon) < 10 nM | GI50 (T-47D breast) < 10 nM | GI50 (TK-10 renal) < 10 nM | GI50 (U251 glioblastoma) < 10 nM | GI50 (UACC-257 melanoma) < 10 nM | GI50 (UACC-62 melanoma) < 10 nM | GI50 (UO-31 renal) 43.6 nM
inactive: GI50 (NCI/ADR-RES ovarian) 2850 nM
< 18.1 nM: TGI (TK-10 renal)
